According to patent US20110230481A2, “DERIVATIVES OF TETRABROMOBENZIMIDAZOLE, A PROCESS FOR THE PREPARATION THEREOF, A PHARMACEUTICAL COMPOSITION COMPRISING THE SAME, A METHOD OF USING THE SAME, A METHOD FOR MODULATING OR REGULATING SERINE/THREONINE KINASES, AND SERINE/THREONINE KINASES MODULATING AGENT” (SELVITA S.A., priority 2009, published 2011):

Columns and labels:
[1] = system: panel of 440 kinases; assay: KINOMEscan Max, whole panel; type: binding, human; details: 1 μM
Protocol: (§1) Kinase panel profiling was performed at Ambit Kinomescan (http://www.ambitbio.com/technology/) using the “KINOMEscan™ Max” assay platform, a high-throughput method for screening small molecule compounds against large numbers of human kinases. KINOMEscan™ is based on a competition binding assay that quantitatively measures the ability of a compound to compete with an immobilized, active-site directed ligand. The assay is performed by combining three components: DNA-tagged kinase; immobilized ligand; and a test compound. The ability of the test compound to compete with the immobilized ligand is measured via quantitative PCR of the DNA tag. For a description of Ambit's assay protocol, see Fabian et al. A small molecule-kinase interaction map for clinical kinase inhibitors. Nat. Biotechnol. 23, 329-336 (2005).
Selectivity of kinase inhibition is one of the key parameters in therapeutic use of this class of compounds. Off-target inhibition could be one of the major safety and toxicity issues in drug development and use of the compounds for treatment of various disease conditions. For this reason, development of selective kinase inhibitors is desired, to limit possible adverse effects. Therefore compounds disclosed in the application were tested on a panel of 440 kinases to determine specificity in PIM kinase inhibition. Table 5 provides selectivity data for representative compound N-(3-aminopropyl)-4,5,6,7-tetrabromo-1H-benzo[d]imidazol-2-amine (compound 11). As indicated in the Table 5 when tested at 1 μM concentration N-(3-aminopropyl)-4,5,6,7-tetrabromo-1H-benzo[d]imidazol-2-amine inhibited substrate biding of only 12 kinases (2% of the whole panel)>90%, whereas for over 93% of the tested kinases in the panel, substrate binding was basically not affected by compound 11. Pim kinases, but also HIPK, DYRK and CLK kinases and FTL3 mutants were identified as the primary targets for inhibition by compound 11 and selectivity for Pim kinases over other kinases was further confirmed in radiometric kinase assays.

[2] = molecular target: T1, ABL1(F317L)-nonphosphorylated (Homo sapiens, UniProt P00519, F317L); assay: KINOMEscan Max; type: binding
T1 construct: purchased Ambit (KINOMEscan Max service)
Protocol: as §1

[3] = molecular target: T2, CAMK2D (Homo sapiens, UniProt Q13557); assay: KINOMEscan Max; type: binding
T2 construct: DNA tag (qPCR label); purchased Ambit Kinomescan (contract screening)
Protocol: as §1

[4] = molecular target: T3, CAMKK1 (Homo sapiens, UniProt Q8N5S9); assay: KINOMEscan Max; type: binding
T3 construct: DNA tag (qPCR label); purchased Ambit Kinomescan (contract screening)
Protocol: as §1

[5] = molecular target: T4, CSF1R (Homo sapiens, UniProt P07333); assay: KINOMEscan Max; type: binding
T4 construct: purchased Ambit (KINOMEscan Max panel service)
Protocol: as §1

[6] = molecular target: T5, CSNK1A1 (Homo sapiens, UniProt P48729); assay: KINOMEscan Max; type: binding
T5 construct: DNA tag (qPCR read-out)
Protocol: as §1

[7] = molecular target: T6, DRAK2 (Homo sapiens, UniProt O94768); assay: KINOMEscan Max; type: binding
T6 construct: purchased Ambit (KINOMEscan Max panel service)
Protocol: as §1

[8] = molecular target: T7, ERK2 (Homo sapiens, UniProt P28482); assay: KINOMEscan Max; type: binding
T7 construct: purchased Ambit Kinomescan (contract panel, KINOMEscan Max)
T7 sequence (P28482 whole entry): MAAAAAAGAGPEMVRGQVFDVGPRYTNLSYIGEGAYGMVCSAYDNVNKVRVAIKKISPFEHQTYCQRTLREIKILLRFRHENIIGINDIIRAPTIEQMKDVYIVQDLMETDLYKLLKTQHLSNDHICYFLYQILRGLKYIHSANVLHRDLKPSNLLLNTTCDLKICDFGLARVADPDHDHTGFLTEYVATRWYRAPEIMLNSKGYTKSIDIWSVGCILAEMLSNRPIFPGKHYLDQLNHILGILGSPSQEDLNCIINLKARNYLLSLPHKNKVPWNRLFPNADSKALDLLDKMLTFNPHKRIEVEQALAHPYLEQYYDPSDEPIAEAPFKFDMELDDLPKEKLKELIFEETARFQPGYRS
Protocol: as §1

[9] = molecular target: T8, FLT3(N841I) (Homo sapiens, UniProt P36888, N841I); assay: KINOMEscan Max; type: binding
T8 construct: purchased Ambit (KINOMEscan Max service)
Protocol: as §1

[10] = molecular target: T9, GRK7 (Homo sapiens, UniProt Q8WTQ7); assay: KINOMEscan Max; type: binding
T9 construct: purchased Ambit Kinomescan (contract panel, KINOMEscan Max)
T9 sequence (Q8WTQ7 whole entry): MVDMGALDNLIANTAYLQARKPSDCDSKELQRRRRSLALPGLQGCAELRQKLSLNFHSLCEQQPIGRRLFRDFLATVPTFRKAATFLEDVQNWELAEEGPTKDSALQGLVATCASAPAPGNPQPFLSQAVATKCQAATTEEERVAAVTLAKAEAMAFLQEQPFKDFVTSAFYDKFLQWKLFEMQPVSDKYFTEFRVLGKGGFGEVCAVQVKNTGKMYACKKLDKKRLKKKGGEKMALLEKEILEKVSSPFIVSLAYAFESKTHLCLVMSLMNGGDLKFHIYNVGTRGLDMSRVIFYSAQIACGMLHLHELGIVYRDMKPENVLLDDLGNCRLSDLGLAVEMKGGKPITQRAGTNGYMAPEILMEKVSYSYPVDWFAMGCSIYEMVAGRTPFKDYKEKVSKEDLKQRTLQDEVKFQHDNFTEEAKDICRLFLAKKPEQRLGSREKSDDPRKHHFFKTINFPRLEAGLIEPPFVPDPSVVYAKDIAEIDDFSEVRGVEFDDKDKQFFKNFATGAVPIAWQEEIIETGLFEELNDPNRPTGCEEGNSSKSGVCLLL
Protocol: as §1

[11] = molecular target: T10, HIPK2 (Homo sapiens, UniProt Q9H2X6); assay: KINOMEscan Max; type: binding
T10 construct: DNA tag (qPCR read-out); purchased Ambit Kinomescan
Protocol: as §1

[12] = molecular target: T11, HPK1 (Homo sapiens, UniProt Q92918); assay: KINOMEscan Max; type: binding
T11 construct: purchased Ambit Kinomescan (contract panel, KINOMEscan Max)
Protocol: as §1

[13] = molecular target: T12, IGF1R (Homo sapiens, UniProt P08069); assay: KINOMEscan Max; type: binding
T12 construct: purchased Ambit Kinomescan (contract panel, KINOMEscan Max)
T12 sequence (P08069 31-1367): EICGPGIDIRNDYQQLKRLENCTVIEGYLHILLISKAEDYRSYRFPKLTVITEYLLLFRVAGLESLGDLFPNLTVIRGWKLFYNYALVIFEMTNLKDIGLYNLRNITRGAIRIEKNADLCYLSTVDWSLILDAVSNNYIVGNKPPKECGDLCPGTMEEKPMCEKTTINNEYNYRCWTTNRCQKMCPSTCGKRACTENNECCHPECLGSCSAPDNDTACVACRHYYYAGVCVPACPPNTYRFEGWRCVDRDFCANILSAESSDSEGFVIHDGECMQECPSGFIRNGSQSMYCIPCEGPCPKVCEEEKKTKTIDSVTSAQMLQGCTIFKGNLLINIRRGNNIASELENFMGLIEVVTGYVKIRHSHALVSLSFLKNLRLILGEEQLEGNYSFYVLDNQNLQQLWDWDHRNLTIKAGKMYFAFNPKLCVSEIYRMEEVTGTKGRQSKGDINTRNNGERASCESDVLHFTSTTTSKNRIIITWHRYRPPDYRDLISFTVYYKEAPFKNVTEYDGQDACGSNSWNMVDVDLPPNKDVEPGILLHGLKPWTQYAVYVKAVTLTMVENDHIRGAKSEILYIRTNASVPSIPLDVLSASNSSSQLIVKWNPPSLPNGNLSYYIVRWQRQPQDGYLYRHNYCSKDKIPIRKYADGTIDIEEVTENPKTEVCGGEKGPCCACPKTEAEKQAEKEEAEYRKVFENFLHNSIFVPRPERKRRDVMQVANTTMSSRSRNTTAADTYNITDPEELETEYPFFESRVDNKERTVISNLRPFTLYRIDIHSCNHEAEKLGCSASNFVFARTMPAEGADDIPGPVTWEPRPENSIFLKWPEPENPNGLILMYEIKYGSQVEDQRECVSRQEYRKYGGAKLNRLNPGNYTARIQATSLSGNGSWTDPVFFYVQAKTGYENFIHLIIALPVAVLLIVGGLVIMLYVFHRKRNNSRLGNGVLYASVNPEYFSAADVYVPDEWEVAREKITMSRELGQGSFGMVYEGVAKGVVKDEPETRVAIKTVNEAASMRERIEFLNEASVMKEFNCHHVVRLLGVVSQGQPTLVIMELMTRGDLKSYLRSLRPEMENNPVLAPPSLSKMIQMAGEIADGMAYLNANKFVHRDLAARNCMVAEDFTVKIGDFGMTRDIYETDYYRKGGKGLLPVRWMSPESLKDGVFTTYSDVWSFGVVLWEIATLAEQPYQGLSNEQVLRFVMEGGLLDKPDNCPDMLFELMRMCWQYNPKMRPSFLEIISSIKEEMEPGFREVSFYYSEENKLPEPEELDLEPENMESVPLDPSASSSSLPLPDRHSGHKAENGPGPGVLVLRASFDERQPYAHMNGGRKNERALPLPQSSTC
Protocol: as §1

[14] = molecular target: T13, LOK (Homo sapiens, UniProt O94804); assay: KINOMEscan Max; type: binding; details: 1 μM
T13 construct: purchased Ambit Kinomescan (contract panel)
Protocol: as §1

[15] = molecular target: T14, MAP3K3 (Homo sapiens, UniProt Q99759); assay: KINOMEscan Max; type: binding
T14 construct: purchased Ambit Kinomescan (contract panel)
Protocol: as §1

[16] = molecular target: MINK (Homo sapiens, UniProt Q8N4C8); assay: KINOMEscan Max; type: binding
Sequence of MINK (Q8N4C8 whole entry): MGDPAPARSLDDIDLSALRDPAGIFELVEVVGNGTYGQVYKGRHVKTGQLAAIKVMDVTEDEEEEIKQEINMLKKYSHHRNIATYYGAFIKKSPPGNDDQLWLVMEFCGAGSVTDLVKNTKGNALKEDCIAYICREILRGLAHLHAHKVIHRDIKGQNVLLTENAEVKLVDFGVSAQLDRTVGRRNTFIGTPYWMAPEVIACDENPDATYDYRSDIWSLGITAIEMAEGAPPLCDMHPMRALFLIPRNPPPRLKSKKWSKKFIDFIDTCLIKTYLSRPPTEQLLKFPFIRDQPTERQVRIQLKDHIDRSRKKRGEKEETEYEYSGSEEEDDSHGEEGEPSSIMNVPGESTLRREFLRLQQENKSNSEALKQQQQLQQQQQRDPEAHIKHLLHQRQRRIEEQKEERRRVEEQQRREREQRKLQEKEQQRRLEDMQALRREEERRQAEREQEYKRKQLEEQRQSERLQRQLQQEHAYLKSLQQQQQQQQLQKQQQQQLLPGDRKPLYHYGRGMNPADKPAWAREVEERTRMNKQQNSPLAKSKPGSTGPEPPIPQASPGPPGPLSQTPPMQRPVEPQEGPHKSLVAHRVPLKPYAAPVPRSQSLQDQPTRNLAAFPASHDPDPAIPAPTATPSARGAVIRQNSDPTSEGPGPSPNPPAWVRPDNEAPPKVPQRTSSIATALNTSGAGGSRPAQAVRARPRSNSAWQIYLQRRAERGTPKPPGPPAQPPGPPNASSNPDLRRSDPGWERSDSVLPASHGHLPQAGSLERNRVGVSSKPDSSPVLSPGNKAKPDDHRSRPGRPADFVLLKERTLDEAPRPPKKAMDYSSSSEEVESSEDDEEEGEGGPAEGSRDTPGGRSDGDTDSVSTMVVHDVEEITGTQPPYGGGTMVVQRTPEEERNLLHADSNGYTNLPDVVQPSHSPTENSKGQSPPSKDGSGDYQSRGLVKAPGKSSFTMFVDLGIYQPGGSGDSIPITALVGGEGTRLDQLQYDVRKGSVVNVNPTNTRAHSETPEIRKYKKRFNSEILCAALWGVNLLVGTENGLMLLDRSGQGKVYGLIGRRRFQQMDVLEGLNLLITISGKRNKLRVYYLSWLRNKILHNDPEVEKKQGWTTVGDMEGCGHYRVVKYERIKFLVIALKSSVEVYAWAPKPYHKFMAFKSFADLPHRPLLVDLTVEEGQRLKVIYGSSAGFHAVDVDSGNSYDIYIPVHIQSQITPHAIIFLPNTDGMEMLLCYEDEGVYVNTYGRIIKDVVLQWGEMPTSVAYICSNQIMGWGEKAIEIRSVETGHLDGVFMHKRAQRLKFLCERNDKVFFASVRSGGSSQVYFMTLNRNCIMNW
Protocol: as §1

[17] = molecular target: T15, MST4 (Homo sapiens, UniProt Q9P289); assay: KINOMEscan Max; type: binding
T15 construct: DNA tag (qPCR read-out)
Protocol: as §1

[18] = molecular target: NDR1 (Homo sapiens, UniProt Q15208); assay: KINOMEscan Max; type: binding
Protocol: as §1

[19] = molecular target: T16, PRKCI (Homo sapiens, UniProt P41743); assay: KINOMEscan Max; type: binding
T16 construct: DNA tag (qPCR read-out)
Protocol: as §1

[20] = molecular target: T17, PYK2 (Homo sapiens, UniProt Q14289); assay: KINOMEscan Max; type: binding
T17 construct: DNA tag (qPCR read-out)
Protocol: as §1

[21] = molecular target: T18, RIOK1 (Homo sapiens, UniProt Q9BRS2); assay: KINOMEscan Max; type: binding
T18 construct: DNA tag (qPCR read-out)
Protocol: as §1

[22] = molecular target: T19, RIOK3 (Homo sapiens, UniProt O14730); assay: KINOMEscan Max; type: binding
T19 construct: DNA tag (qPCR read-out)
Protocol: as §1

[23] = molecular target: T20, RIPK2 (Homo sapiens, UniProt O43353); assay: KINOMEscan Max; type: binding
T20 construct: DNA tag (qPCR read-out)
Protocol: as §1

[24] = molecular target: T21, ROCK2 (Homo sapiens, UniProt O75116); assay: KINOMEscan Max; type: binding
T21 construct: purchased Ambit (KINOMEscan Max service)
T21 sequence (O75116 whole entry): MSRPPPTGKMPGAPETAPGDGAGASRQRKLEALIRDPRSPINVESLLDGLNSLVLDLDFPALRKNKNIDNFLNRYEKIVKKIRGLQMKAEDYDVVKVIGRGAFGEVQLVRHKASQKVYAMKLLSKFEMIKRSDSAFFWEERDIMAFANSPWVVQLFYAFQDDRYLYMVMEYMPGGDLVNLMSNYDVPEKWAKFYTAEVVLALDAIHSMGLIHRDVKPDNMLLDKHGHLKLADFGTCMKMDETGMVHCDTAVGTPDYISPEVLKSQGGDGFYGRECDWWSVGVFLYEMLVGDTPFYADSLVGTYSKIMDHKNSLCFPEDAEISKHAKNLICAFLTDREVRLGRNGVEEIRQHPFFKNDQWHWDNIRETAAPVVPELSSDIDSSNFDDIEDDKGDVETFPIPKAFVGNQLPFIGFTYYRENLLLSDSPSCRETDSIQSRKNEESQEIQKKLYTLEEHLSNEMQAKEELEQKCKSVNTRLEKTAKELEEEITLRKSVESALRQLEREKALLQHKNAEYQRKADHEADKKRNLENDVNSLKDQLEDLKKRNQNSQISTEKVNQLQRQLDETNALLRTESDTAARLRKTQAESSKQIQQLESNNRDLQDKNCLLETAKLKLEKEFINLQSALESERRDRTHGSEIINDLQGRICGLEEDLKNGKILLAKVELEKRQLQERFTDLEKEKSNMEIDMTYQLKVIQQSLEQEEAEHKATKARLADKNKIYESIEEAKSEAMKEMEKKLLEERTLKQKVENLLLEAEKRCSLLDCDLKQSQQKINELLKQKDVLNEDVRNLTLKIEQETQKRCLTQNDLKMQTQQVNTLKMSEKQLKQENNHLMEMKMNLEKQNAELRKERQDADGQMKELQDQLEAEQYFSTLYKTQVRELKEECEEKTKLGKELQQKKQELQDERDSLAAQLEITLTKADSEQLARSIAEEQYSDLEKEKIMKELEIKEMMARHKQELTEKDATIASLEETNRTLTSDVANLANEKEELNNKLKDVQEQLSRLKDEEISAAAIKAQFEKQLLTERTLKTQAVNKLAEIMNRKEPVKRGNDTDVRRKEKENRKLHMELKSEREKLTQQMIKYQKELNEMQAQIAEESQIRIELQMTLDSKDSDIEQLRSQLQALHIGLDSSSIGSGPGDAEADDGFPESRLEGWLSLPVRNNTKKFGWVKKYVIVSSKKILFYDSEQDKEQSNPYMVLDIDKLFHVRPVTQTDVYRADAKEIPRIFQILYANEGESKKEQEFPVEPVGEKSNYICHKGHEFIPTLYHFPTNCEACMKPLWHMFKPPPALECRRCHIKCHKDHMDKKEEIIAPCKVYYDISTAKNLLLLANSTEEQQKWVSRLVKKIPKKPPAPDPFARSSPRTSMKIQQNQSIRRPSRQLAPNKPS
Protocol: as §1

[25] = molecular target: T22, SRPK2 (Homo sapiens, UniProt P78362); assay: KINOMEscan Max; type: binding
T22 construct: DNA tag (qPCR read-out)
Protocol: as §1

[26] = molecular target: TIE2 (Homo sapiens, UniProt Q02763); assay: KINOMEscan Max; type: binding
Protocol: as §1

[27] = molecular target: T23, YES (Homo sapiens, UniProt P07947); assay: KINOMEscan Max; type: binding
T23 construct: purchased Ambit Kinomescan (contract screening service)
Protocol: as §1

[28] = molecular target: PIM3 (Homo sapiens, UniProt Q86V86); assay: KINOMEscan Max; type: binding; design: DNA tag (qPCR read-out); purchased Ambit Kinomescan
Protocol: as §1

NCCCNc1nc2c(Br)c(Br)c(Br)c(Br)c2[nH]1 [Compound 11, N-(3-aminopropyl)-4,5,6,7-tetrabromo-1H-benzo[d]imidazol-2-amine]
number of kinases with substrate binding inhibited >90% [1]: 12
share of tested kinases with substrate binding basically not affected [1]: over 93%
share of the whole panel with substrate binding inhibited >90% [1]: 2%
remaining binding at 1 µM [2]: 67%
remaining binding at 1 µM [3]: 100%
remaining binding at 1 µM [4]: 100%
remaining binding at 1 µM [5]: 100%
remaining binding at 1 µM [6]: 35%
remaining binding at 1 µM [7]: 100%
remaining binding at 1 µM [8]: 100%
remaining binding at 1 µM [9]: 81%
remaining binding at 1 µM [10]: 100%
remaining binding at 1 µM [11]: 0.8%
remaining binding at 1 µM [12]: 100%
remaining binding at 1 µM [13]: 100%
% binding [14]: 100%
remaining binding at 1 µM [15]: 100%
remaining binding at 1 µM [16]: 100%
remaining binding at 1 µM [17]: 87%
remaining binding at 1 µM [18]: 100%
remaining binding at 1 µM [19]: 100%
remaining binding at 1 µM [20]: 100%
remaining binding at 1 µM [21]: 56%
remaining binding at 1 µM [22]: 52%
remaining binding at 1 µM [23]: 100%
remaining binding at 1 µM [24]: 71%
remaining binding at 1 µM [25]: 100%
remaining binding at 1 µM [26]: 91%
remaining binding at 1 µM [27]: 100%
remaining binding at 1 µM [28]: 5.2%
